Test results taken from ChEMBL document CHEMBL1131695, “Design and synthesis of 6-(6-D-ribitylamino-2,4-dihydroxypyrimidin-5-yl)-1-hexyl phosphonic acid, a potent inhibitor of lumazine synthase” (Bioorg Med Chem Lett, 1999).

Assay: Inhibitory activity against lumazine synthase beta-60 capsids from Bacillus subtilis

In the case of `O=P(O)(O)CCCCCCc1c(O)nc(O)nc1NC[C@H](O)[C@H](O)[C@H](O)CO`, the Ki is reported as 109 µM.
In the case of `O=C(Nc1c(O)nc(O)nc1NC[C@H](O)[C@H](O)[C@H](O)CO)c1ccc(S(=O)(=O)O)cc1`, the Ki is reported as 360 µM.
For `O=C(Nc1c(O)nc(O)nc1NC[C@H](O)[C@H](O)[C@H](O)CO)c1ccc(S(=O)(=O)F)cc1`, the Ki was 200 µM.
In the case of `O=C(O)CCCC(=O)Nc1c(O)nc(O)nc1NC[C@H](O)[C@H](O)[C@H](O)CO`, the Ki is reported as 430 µM.
Compound `O=c1[nH]c(=O)c2nnn(C[C@H](O)[C@H](O)[C@H](O)CO)c2[nH]1` has a Ki of 330 µM.
`O=c1[nH]c(=O)c2ncn(C[C@H](O)[C@H](O)[C@H](O)CO)c2[nH]1` showed a Ki of 470 µM.
